Data: the NIST ThermoML archive (doi:10.1016/j.fluid.2013.05.013)
± gives the expanded uncertainty stated by the source.

Details: 101.33 kPa, Liquid; for viscosity: Concentric cylinders viscometry; for mass density: Vibrating tube method

Row | Structure (SMILES) | viscosity (288.15 K) [mPa·s] | mass density (288.15 K) [kg/m3] | viscosity (298.15 K) [mPa·s] | mass density (298.15 K) [kg/m3] | viscosity (308.15 K) [mPa·s] | mass density (308.15 K) [kg/m3] | viscosity (318.15 K) [mPa·s] | mass density (318.15 K) [kg/m3]
1 | CCn1cc[n+](C)c1.O=S(=O)([N-]S(=O)(=O)C(F)(F)F)C(F)(F)F | 47.97 ± 0.29 | 1528.51 ± 0.7 | 32.51 ± 0.2 | 1518.38 ± 0.69 | 23.34 ± 0.14 | 1508.33 ± 0.68 | 17.46 ± 0.11 | 1498.36 ± 0.67
2 | CCn1cc[n+](C)c1.O=S(=O)([O-])C(F)(F)F [1-ethyl-3-methylimidazolium trifluoromethanesulfonate] | 67.66 ± 0.45 | 1392.47 ± 0.57 | 45.12 ± 0.28 | 1384.05 ± 0.56 | 31.89 ± 0.2 | 1375.68 ± 0.56 | 23.4 ± 0.14 | 1367.37 ± 0.55
